Key:
[1] = molecular target: T1, Aβ1-42 (Homo sapiens, UniProt P05067); experiment: biochemical; details: Aβ1-42; inhibitor 40 µM; SEM < 10%; read-out: Inhib. Aβ Aggreg. Self-Induced
T1 construct: Amyloid β peptide (Aβ1-42) was purchased from GeneCust as a lyophilised powder; purchased GeneCust
Protocol: The anti-amyloidogenic activity of all the compounds was also evaluated in vitro, in the absence and in presence of Cu(II), by measuring the fluorescence emission of Thioflavin T (ThT).
The spectrofluorimetric method, based on the fluorescence emission of thioflavin T (ThT), was used to study the Aβ1-42 aggregation inhibition. Firstly, Aβ1-42 was dissolved in HFIP (1,1,1,3,3,3-Hexafluoro-2-propanol) and kept overnight at room temperature in order to obtain a dry film. […] The ligand solutions were prepared with MeOH (1mg/mL) and further with phosphate buffer. […] As a control, a solution of 30 μL of phosphate buffer and 30 μL of Aβ1-42 was used to observe the aggregation without any inhibition, while the ligand assay solutions were composed of 20 μL of phosphate buffer, 30 μL of Aβ1-42 and 10 μL of ligand. The Cu-induced aggregation studies were similarly conducted, adding 10 μL of CuCl2 to induce the fibril aggregation. Each experiment was composed of an assay and a blank sample, where the blank sample lacks Aβ1-42, to monitor the effect of the compounds on the fluorescence emission. The samples were left to incubate in a CERTOMAT WR water bath for 24 h at 37 °C with shaking. After 24 h, a Glycine-NaOH buffer (pH = 8.5) containing ThT were added to each sample in a microplate. The fluorescence signal was monitored at 446 nm (λexc) and 486 nm (λem) with a Varian Cary Eclipse fluorimeter. Amyloid β peptide (Aβ1-42) was purchased from GeneCust as a lyophilised powder and stored at −20 °C [12, 13, 14].

[2] = molecular target: T1, Aβ1-42; experiment: Inhibition of Cu2+-induced Aβ1-42 aggregation, thioflavin T fluorescence; format: biochemical; details: inhibitor 40 µM, copper 40 µM, read-out: Inhib. Aβ Aggreg. Cu2+-Induced
Protocol: The anti-amyloidogenic activity of all the compounds was also evaluated in vitro, in the absence and in presence of Cu(II), by measuring the fluorescence emission of Thioflavin T (ThT). […] The Aβ self-aggregation inhibitory activity shown by all compounds is higher than that of parent compound TA, with the exception of compound 2 (probably due to solubility issues at the experimental conditions of the assays). The fact that the reference value previously reported by us for TA (50 ± 8%) was obtained for quite different conditions, including a much higher inhibitor concentration (100 μM instead of 40 μM) is noteworthy. […] This may be due to different electronic contributions between the ketone and the ester functions. Therefore, the ester derivatives seem to be better chelators compared to TA.
The spectrofluorimetric method, based on the fluorescence emission of thioflavin T (ThT), was used to study the Aβ1-42 aggregation inhibition. Firstly, Aβ1-42 was dissolved in HFIP (1,1,1,3,3,3-Hexafluoro-2-propanol) and kept overnight at room temperature in order to obtain a dry film. Then, the film was re-dissolved in CH3CN-Na2CO3 (300μM)/NaOH (250μM) (48.3/48.3/3.4 mL v/v/v) and then phosphate buffer (pH = 8) was added. The ligand solutions were prepared with MeOH (1mg/mL) and further with phosphate buffer. For the inhibition studies of copper-induced Aβ aggregation, a solution of CuCl2 240 μM was used. As a control, a solution of 30 μL of phosphate buffer and 30 μL of Aβ1-42 was used to observe the aggregation without any inhibition, while the ligand assay solutions were composed of 20 μL of phosphate buffer, 30 μL of Aβ1-42 and 10 μL of ligand. The Cu-induced aggregation studies were similarly conducted, adding 10 μL of CuCl2 to induce the fibril aggregation. Each experiment was composed of an assay and a blank sample, where the blank sample lacks Aβ1-42, to monitor the effect of the compounds on the fluorescence emission. The samples were left to incubate in a CERTOMAT WR water bath for 24 h at 37 °C with shaking. After 24 h, a Glycine-NaOH buffer (pH = 8.5) containing ThT were added to each sample in a microplate. The fluorescence signal was monitored at 446 nm (λexc) and 486 nm (λem) with a Varian Cary Eclipse fluorimeter. Amyloid β peptide (Aβ1-42) was purchased from GeneCust as a lyophilised powder and stored at −20 °C [12, 13, 14].

[3] = test system: SH-SY5Y human neuroblastoma cells; experiment: Neuroprotection against Aβ1-42-induced toxicity, MTT; format: cell-based; details: Aβ1-42 2.5 μM 24 h; 1 h pre-incubation; compounds 1, 2 100 µM; 4 10 µM; 5 20 µM
Protocol: SH-SY5Y human neuroblastoma cells (ATCC-CRL-2266) were seeded in DMEM/F12 (Dulbecco’s Modified Eagle Medium/Ham’s F-12 Nutrient Mixture; Thermo Fisher Scientific) with 10% heat inactivated fetal bovine serum, 50 U/mL penicillin and 50 U/mL streptomycin under a humidified atmosphere with 95% relative humidity at 37 °C at a 0.16 × 10^6 cells/mL density. Stock solutions from tested compounds (1, 2, 4 and 5) were prepared in DMSO at a 25 mM concentration and stored at −20 °C until needed. In order to select the highest non-toxic concentration, a dose-response screening was performed, where SH-SY5Y cells were exposed to the compounds for 25 h. The selected concentrations for each compound were: 75 µM final concentration for 1 and 2; 10 µM final concentration for 4 and 20 µM final concentration for 5. […] For the neuroprotection assays, the selected compounds were added to the cell media 1 hour prior to the incubation with Aβ1-42 or L-ascorbic acid/ferrous sulphate. Aβ1-42 or L-ascorbic acid/ferrous sulphate treatment was maintained for another 24 h. Aβ1-42 was prepared as 276.9 µM stock in sterile water and administrated in the medium at a 2.5 µM final concentration. Ferrous sulphate was freshly prepared as 0.36 M stock in water and added to the medium at 2.5 mM final concentration. L-ascorbic acid was freshly prepared as 80 mM stock in water and added to the medium at 5 mM final concentration. Aβ1-42 was purchased from Bachem (Torrance, CA, USA) and ferrous sulphate and L-ascorbic acid from Sigma Chemical Co (St. Louis, MO, USA).
Cell viability was measured by using the MTT (3-(4,5-dimethylthiazol-2-yl)-2,5-diphenyl tetrazolium bromide) reduction assay. This test is based on the presence of succinate dehydrogenase enzyme in viable cells, that allows them to metabolize MTT into a formazan. After treatment, the medium was removed, and cells were washed with 1x PBS one time to remove dead cells. 200 µL of MTT solution (0.5 mg/mL) was added to each well and incubated for 2 h protected from light. Formazan precipitates were then dissolved in DMSO and absorbance measured at 570 nm. The ability to reduce MTT was expressed as a percentage of untreated control cells.
Overnight cultures were treated with Aβ1-42 peptide (2.5 μM) for 24 h in the absence or in the presence of the compounds. When compounds were present, a pre-incubation of 1 h preceded the Aβ1-42 treatment. Cellular viability was determined by employing the MTT reduction assay. […] (compounds: 1, 2–100 µM; 4–10 µM; 5–20 µM).

T1 sequence (P05067 672-713 limits assumed): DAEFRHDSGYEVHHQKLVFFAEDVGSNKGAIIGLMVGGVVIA

SMILES | inhibition at 40 µM [1] [%] | inhibition at 40 µM [2] [%] | protection against Aβ1-42-induced toxicity [3]
CCOC(=O)C1=C(O)C(Cc2ccccc2)NC1=O (stereo not drawn) [Compound 2, Ethyl 5-benzyl-4-hydroxy-2-oxo-2,5-dihydro-1H-pyrrole-3-carboxylate] | 12.4 | 28.2 | do not confer protection
CCOC(=O)C1=C(O)C(C(C)C)NC1=O (stereo not drawn) [Compound 1, Ethyl 4-hydroxy-5-isopropyl-2-oxo-2,5-dihydro-1H-pyrrole-3-carboxylate] | 32.9 | 36.6 | do not confer protection

From paper PMC7830597, “Derivatives of Tenuazonic Acid as Potential New Multi-Target Anti-Alzheimer’s Disease Agents” (Biomolecules, 2021)
